Experimental data: the supplement of paper PMC10307832

Columns and labels:
Experiment in all cases: relative viability (nuclei count vs DMSO), 5 days (fraction); higher = more cells survive
Temozolomide + Dasatinib = compound: Cn1nnc2c(C(N)=O)ncn2c1=O [Temozolomide] + Cc1nc(Nc2ncc(C(=O)Nc3c(C)cccc3Cl)s2)cc(N2CCN(CCO)CC2)n1 [Dasatinib] (partner 0.075 µM)
Summary of the method: (§1)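 Cells from lung cancer lines were seeded into 1536-well plates and, one day later, dosed by pin tool. Treatments were either a single drug or a fixed dose of an anchor drug with five library-drug doses (not always all listed) in √10 steps. After 5 days, nuclei were stained in a one-step fixation (final 0.05% Triton X-100, 1% formaldehyde, 1 ug/ml Hoechst) and counted on 4× images, and relative viability is the treated-to-vehicle nuclei ratio, as the median of duplicate plates.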

AZD5582 + Decitabine = compound: C[C@@H](C(=O)N[C@@H](C1CCCCC1)C(=O)N2CCC[C@H]2C(=O)N[C@@H]3[C@@H](CC4=CC=CC=C34)OCC#CC#CCO[C@@H]5CC6=CC=CC=C6[C@@H]5NC(=O)[C@@H]7CCCN7C(=O)[C@H](C8CCCCC8)NC(=O)[C@H](C)NC)NC [AZD5582] + Nc1ncn([C@H]2C[C@H](O)[C@@H](CO)O2)c(=O)n1 [Decitabine] (partner 2 µM)
Summary of the method: as §1

[1] = compound: Cn1nnc2c(C(N)=O)ncn2c1=O [Temozolomide] + CCNC(=O)c1noc(-c2cc(C(C)C)c(O)cc2O)c1-c1ccc(CN2CCOCC2)cc1 [Luminespib] (partner 0.01 µM)
Summary of the method: as §1

AZD5582 + Bortezomib = compound: C[C@@H](C(=O)N[C@@H](C1CCCCC1)C(=O)N2CCC[C@H]2C(=O)N[C@@H]3[C@@H](CC4=CC=CC=C34)OCC#CC#CCO[C@@H]5CC6=CC=CC=C6[C@@H]5NC(=O)[C@@H]7CCCN7C(=O)[C@H](C8CCCCC8)NC(=O)[C@H](C)NC)NC [AZD5582] + CC(C)C[C@H](NC(=O)[C@H](Cc1ccccc1)NC(=O)c1cnccn1)B(O)O [Bortezomib] (partner 0.002 µM)
Summary of the method: as §1

Cell Line | relative viability (Temozolomide + Dasatinib; first compound 0.2 µM) | relative viability (Temozolomide + Dasatinib; first compound 0.6325 µM) | relative viability (Temozolomide + Dasatinib; first compound 2 µM) | relative viability (Temozolomide + Dasatinib; first compound 6.325 µM) | relative viability (Temozolomide + Dasatinib; first compound 20 µM) | relative viability (AZD5582 + Decitabine; first compound 0.001581 µM) | relative viability (AZD5582 + Decitabine; first compound 0.005 µM) | relative viability (AZD5582 + Decitabine; first compound 0.01581 µM) | relative viability (AZD5582 + Decitabine; first compound 0.05 µM) | relative viability ([1]; first compound 0.2 µM) | relative viability ([1]; first compound 0.6325 µM) | relative viability ([1]; first compound 2 µM) | relative viability ([1]; first compound 6.325 µM) | relative viability ([1]; first compound 20 µM) | relative viability (AZD5582 + Bortezomib; first compound 0.001581 µM) | relative viability (AZD5582 + Bortezomib; first compound 0.005 µM) | relative viability (AZD5582 + Bortezomib; first compound 0.01581 µM) | relative viability (AZD5582 + Bortezomib; first compound 0.05 µM)
LC-2-ad | 0.628 | 0.662 | 0.836 | 0.471 | 0.472 | 0.822 | 0.847 | 0.765 | 0.764 | 0.928 | 1.05 | 1.09 | 0.899 | 0.988 | 1.05 | 1.14 | 0.938 | 1.04
LCLC-97TM1 | 0.76 | 0.807 | 0.934 | 0.813 | 0.803 | 0.216 | 0.189 | 0.243 | 0.0933 | 0.835 | 0.7 | 0.749 | 0.806 | 0.75 | 0.542 | 0.531 | 0.455 | 0.298
LCLC-103H | 0.524 | 0.567 | 0.548 | 0.565 | 0.471 | 0.698 | 0.798 | 0.718 | 0.724 | 1.09 | 1.04 | 1.07 | 1.01 | 0.872 | 0.972 | 1.14 | 0.958 | 1
LOU-NH91 | 0.444 | 0.551 | 0.589 | 0.572 | 0.448 | 0.803 | 0.835 | 0.824 | 0.794 | 0.341 | 0.341 | 0.323 | 0.325 | 0.361 | 0.45 | 0.509 | 0.489 | 0.443
LU99A | 0.589 | 0.489 | 0.6 | 0.524 | 0.548 | 0.882 | 1.09 | 0.829 | 0.97 | 0.265 | 0.312 | 0.288 | 0.23 | 0.225 | 1.24 | 1.32 | 1.09 | 1.46
LXF-289 | 0.27 | 0.228 | 0.192 | 0.18 | 0.252 | 0.372 | 0.331 | 0.391 | 0.308 | 0.712 | 0.782 | 0.722 | 0.729 | 0.659 | 0.985 | 1.03 | 0.987 | 1.05
NCI-H23 | 0.921 | 0.898 | 0.768 | 0.744 | 0.861 | 0.334 | 0.293 | 0.27 | 0.278 | 0.223 | 0.208 | 0.229 | 0.21 | 0.237 | 0.84 | 1.14 | 0.913 | 0.676
NCI-H322M | – | 0.275 | 0.274 | 0.256 | 0.218 | 0.762 | 0.739 | 0.652 | 0.737 | – | 0.935 | 0.968 | 0.786 | 0.712 | 1.18 | 1.37 | 1.18 | 1.41
NCI-H441 | 0.656 | 0.621 | 0.682 | 0.608 | 0.724 | 0.211 | 0.23 | 0.21 | 0.225 | 0.333 | 0.515 | 0.331 | 0.306 | 0.368 | 0.379 | 0.495 | 0.47 | 0.418
NCI-H460 | 0.525 | 0.547 | 0.556 | 0.417 | 0.486 | 0.424 | 0.491 | 0.466 | 0.577 | 0.0394 | 0.0362 | 0.0277 | 0.0344 | 0.0293 | 1.02 | 1.05 | 1.06 | 1.34
NCI-H520 | 0.24 | 0.212 | 0.207 | 0.185 | 0.235 | 0.504 | 0.515 | 0.509 | 0.557 | 0.216 | 0.216 | 0.234 | 0.222 | 0.21 | 0.702 | 0.826 | 0.432 | 0.757
NCI-H596 | 0.601 | 0.697 | 0.614 | 0.461 | 0.564 | 1.02 | – | 1.06 | 0.39 | 1.15 | 1.15 | 0.948 | 0.84 | 1.18 | 1.35 | 1.2 | 1.13 | 0.549
NCI-H647 | 0.206 | 0.22 | 0.303 | 0.117 | 0.111 | 0.426 | 0.366 | 0.417 | 0.331 | 0.17 | 0.174 | 0.197 | 0.114 | 0.0944 | 0.878 | 0.907 | 0.997 | 0.871
NCI-H650 | 0.504 | 0.46 | 0.532 | 0.395 | 0.43 | 0.327 | 0.3 | 0.321 | 0.306 | 0.607 | 0.898 | 0.816 | 0.739 | 0.846 | 0.757 | 0.654 | 0.57 | 0.582
NCI-H661 | 0.781 | 0.953 | 0.962 | 0.762 | 0.706 | 0.525 | 0.571 | 0.573 | 0.556 | 0.977 | 0.931 | 0.934 | 0.879 | 0.843 | 0.752 | 0.927 | 0.702 | 0.921
NCI-H727 | 0.332 | 0.406 | 0.334 | 0.273 | 0.299 | 0.965 | 0.856 | 0.801 | 0.921 | 0.239 | 0.397 | 0.299 | 0.37 | 0.325 | 0.761 | 0.932 | 0.851 | 1.04
NCI-H838 | 0.28 | 0.253 | 0.426 | 0.311 | 0.281 | 0.451 | 0.41 | 0.476 | 0.396 | 0.357 | 0.346 | 0.35 | 0.301 | 0.393 | 0.809 | 1.21 | 0.382 | 0.486
NCI-H1355 | 0.713 | 0.732 | 0.828 | 0.699 | 0.818 | 0.359 | 0.317 | 0.357 | 0.364 | 0.814 | 0.726 | 0.764 | 0.684 | 0.641 | 1.02 | 1.14 | 1.11 | 1.11
NCI-H1437 | 0.388 | 0.438 | 0.45 | 0.4 | 0.393 | 0.543 | 0.554 | 0.595 | 0.565 | 1.1 | 1.09 | 1.12 | 1.12 | 1.11 | 0.389 | 0.549 | 0.445 | 0.446
NCI-H1650 | 0.356 | 0.329 | 0.343 | 0.318 | 0.28 | 0.389 | 0.366 | 0.51 | 0.279 | 0.187 | 0.205 | 0.178 | 0.189 | 0.217 | 0.166 | 0.192 | 0.188 | 0.169
NCI-H1651 | 0.418 | 0.464 | 0.377 | 0.356 | 0.529 | 0.572 | 0.571 | 0.559 | 0.654 | 0.956 | 0.935 | 0.578 | 0.662 | 1.05 | 0.831 | 0.907 | 0.87 | 0.987
NCI-H1666 | 0.859 | 0.821 | 0.728 | 0.571 | 0.56 | 0.658 | 0.73 | 0.626 | 0.704 | 0.976 | 0.993 | 0.874 | 0.677 | 0.701 | 0.717 | 0.805 | 0.714 | 0.73
NCI-H1734 | 0.482 | 0.471 | 0.396 | 0.482 | 0.464 | 0.479 | 0.527 | 0.484 | 0.514 | 0.285 | 0.183 | 0.237 | 0.201 | 0.194 | 0.959 | 0.963 | 0.966 | 1.14
NCI-H1755 | 0.439 | 0.418 | 0.427 | 0.395 | 0.473 | 0.709 | 0.761 | 0.694 | 0.725 | 0.176 | 0.5 | 0.435 | 0.387 | 0.304 | 0.925 | 1.02 | 0.936 | 1.02
NCI-H1792 | 0.498 | 0.747 | 0.73 | 0.778 | 0.867 | 0.503 | 0.622 | 0.526 | 0.672 | 0.412 | 0.436 | 0.44 | 0.493 | 0.508 | 0.92 | 1.02 | 0.892 | 1.22
NCI-H1915 | 0.348 | 0.328 | 0.288 | 0.215 | 0.198 | 0.278 | 0.26 | 0.276 | 0.259 | 0.963 | 0.761 | 0.616 | 0.429 | 0.313 | 0.938 | 0.991 | 0.92 | 0.855
NCI-H1975 | 0.466 | 0.365 | 0.413 | 0.361 | 0.462 | 0.35 | 0.408 | 0.412 | 0.276 | – | 0.23 | 0.487 | 0.131 | 0.172 | 0.327 | 0.458 | 0.373 | 0.414
NCI-H1993 | 0.528 | 0.603 | 0.524 | 0.661 | 0.6 | 0.634 | 0.7 | 0.603 | 0.613 | 0.856 | 0.783 | 0.764 | 0.75 | 0.824 | 1.06 | 1.38 | 1.15 | 1.1
NCI-H2009 | 0.316 | 0.299 | 0.404 | 0.306 | 0.326 | 0.4 | 0.355 | 0.412 | 0.363 | 1.08 | 1.04 | 1.02 | 0.971 | 0.983 | 0.838 | 1.13 | 0.61 | 0.9
